Calls of active or inactive are those of the source. No rule for the calls is given here.
Test system: CCRIS mutagenicity, Ames/micronucleus/aberration tests
Test: CCRIS mutagenicity studies
[1] = Test System: AMES SALMONELLA TYPHIMURIUM, Strain/Indicator: TA98(NR), Metabolic Activation: NONE, Method: PREINCUBATION
[2] = Test System: AMES SALMONELLA TYPHIMURIUM, Strain/Indicator: TA98, Metabolic Activation: NONE, Method: PREINCUBATION
[3] = Test System: AMES SALMONELLA TYPHIMURIUM, Strain/Indicator: TA98, Metabolic Activation: NONE, Method: STANDARD PLATE
[4] = Test System: AMES SALMONELLA TYPHIMURIUM, Strain/Indicator: TA98, Metabolic Activation: RAT LIVER S-9, AROCLOR 1254 (10%), Method: STANDARD PLATE
[5] = Test System: AMES SALMONELLA TYPHIMURIUM, Strain/Indicator: TA100, Metabolic Activation: NONE, Method: STANDARD PLATE
[6] = Test System: AMES SALMONELLA TYPHIMURIUM, Strain/Indicator: TA1535, Metabolic Activation: NONE, Method: STANDARD PLATE
[7] = Test System: AMES SALMONELLA TYPHIMURIUM, Strain/Indicator: TA1537, Metabolic Activation: NONE, Method: STANDARD PLATE

Measured: mutagenic call

O=[N+]([O-])c1ccc(Cl)c([N+](=O)[O-])c1
inactive: Test System: AMES SALMONELLA TYPHIMURIUM, Strain/Indicator: TA98NR/1,8-DNP6, Metabolic Activation: NONE, Method: STANDARD PLATE inactive; negative | Test System: AMES SALMONELLA TYPHIMURIUM, Strain/Indicator: TA100, Metabolic Activation: RAT, LIVER, S-9, KANECHLOR 500, Method: PREINCUBATION inactive; negative
active: Test System: AMES SALMONELLA TYPHIMURIUM, Strain/Indicator: TA98(1,8-DNP6), Metabolic Activation: NONE, Method: PREINCUBATION active; positive | [1] active; positive | [2] active; positive | [3] active; positive | [4] active; positive | Test System: AMES SALMONELLA TYPHIMURIUM, Strain/Indicator: TA98, Metabolic Activation: RAT, LIVER, S-9, KANECHLOR 500, Method: PREINCUBATION active; positive | Test System: AMES SALMONELLA TYPHIMURIUM, Strain/Indicator: TA98NR, Metabolic Activation: NONE, Method: STANDARD PLATE active; positive | Test System: AMES SALMONELLA TYPHIMURIUM, Strain/Indicator: TA100(NR), Metabolic Activation: NONE, Method: PREINCUBATION active; positive | Test System: AMES SALMONELLA TYPHIMURIUM, Strain/Indicator: TA100/GSH-, Metabolic Activation: NONE, Method: PREINCUBATION active; positive | Test System: AMES SALMONELLA TYPHIMURIUM, Strain/Indicator: TA100, Metabolic Activation: NONE, Method: PREINCUBATION active; positive | [5] active; positive | Test System: AMES SALMONELLA TYPHIMURIUM, Strain/Indicator: YG1021, Metabolic Activation: NONE, Method: STANDARD PLATE active; positive | Test System: AMES SALMONELLA TYPHIMURIUM, Strain/Indicator: YG1024, Metabolic Activation: NONE, Method: STANDARD PLATE active; positive | Test System: Ames Salmonella typhimurium, Strain/Indicator: TA98, Metabolic Activation: None, Method: Preincubation active; positive | Test System: Ames Salmonella typhimurium, Strain/Indicator: TA98, Metabolic Activation: Rat, Liver, S9, Sodium phenobarbital and 5,6-benzoflavone (10%), Method: Preincubation active; positive | Test System: Ames Salmonella typhimurium, Strain/Indicator: TA100, Metabolic Activation: None, Method: Preincubation active; positive | Test System: Ames Salmonella typhimurium, Strain/Indicator: TA100, Metabolic Activation: Rat, Liver, S9, Sodium phenobarbital and 5,6-benzoflavone (10%), Method: Preincubation active; positive | Test System: Ames Salmonella typhimurium, Strain/Indicator: TA1535, Metabolic Activation: None, Method: Preincubation active; positive | Test System: Ames Salmonella typhimurium, Strain/Indicator: TA1535, Metabolic Activation: Rat, Liver, S9, Sodium phenobarbital and 5,6-benzoflavone (10%), Method: Preincubation active; positive | Test System: Ames Salmonella typhimurium, Strain/Indicator: TA1537, Metabolic Activation: Rat, Liver, S9, Sodium phenobarbital and 5,6-benzoflavone (10%), Method: Preincubation active; positive

O=[N+]([O-])c1ccc2sc3ccccc3c2c1
active: Test System: AMES SALMONELLA TYPHIMURIUM, Strain/Indicator: TA98 (1,8-DNP6), Metabolic Activation: NONE, Method: PREINCUBATION active; positive | [1] active; positive | Test System: AMES SALMONELLA TYPHIMURIUM, Strain/Indicator: TA98(NR), Metabolic Activation: RAT LIVER S-9, 3-METHYLCHOLANTHRENE (10%), Method: PREINCUBATION active; positive | [2] active; positive

CC1=CC(=O)CC(C)(C)C1
inactive: End Point: IN VITRO CHROMOSOMAL ABERRATIONS, Test System: CHO CELLS, Metabolic Activation: NONE inactive; negative; precipitation occurred at 1600 ug/ml | End Point: IN VITRO CHROMOSOMAL ABERRATIONS, Test System: CHO CELLS, Metabolic Activation: RAT, LIVER, S-9, AROCLOR 1254 inactive; negative | Test System: AMES SALMONELLA TYPHIMURIUM, Strain/Indicator: TA98, Metabolic Activation: HAMSTER, LIVER, S-9, AROCLOR 1254, Method: STANDARD PLATE inactive; negative | [3] inactive; negative | Test System: AMES SALMONELLA TYPHIMURIUM, Strain/Indicator: TA98, Metabolic Activation: RAT, LIVER, S-9, AROCLOR 1254, Method: STANDARD PLATE inactive; negative | Test System: AMES SALMONELLA TYPHIMURIUM, Strain/Indicator: TA100, Metabolic Activation: HAMSTER, LIVER, S-9, AROCLOR 1254, Method: STANDARD PLATE inactive; negative | [5] inactive; negative | Test System: AMES SALMONELLA TYPHIMURIUM, Strain/Indicator: TA100, Metabolic Activation: RAT, LIVER, S-9, AROCLOR 1254, Method: STANDARD PLATE inactive; negative | Test System: AMES SALMONELLA TYPHIMURIUM, Strain/Indicator: TA1535, Metabolic Activation: HAMSTER, LIVER, S-9, AROCLOR 1254, Method: STANDARD PLATE inactive; negative | [6] inactive; negative | Test System: AMES SALMONELLA TYPHIMURIUM, Strain/Indicator: TA1535, Metabolic Activation: RAT, LIVER, S-9, AROCLOR 1254, Method: STANDARD PLATE inactive; negative | Test System: AMES SALMONELLA TYPHIMURIUM, Strain/Indicator: TA1537, Metabolic Activation: HAMSTER, LIVER, S-9, AROCLOR 1254, Method: STANDARD PLATE inactive; negative | [7] inactive; negative | Test System: AMES SALMONELLA TYPHIMURIUM, Strain/Indicator: TA1537, Metabolic Activation: RAT, LIVER, S-9, AROCLOR 1254, Method: STANDARD PLATE inactive; negative | Test System: MOUSE LYMPHOMA, Strain/Indicator: L5178Y (TK+/TK-), Metabolic Activation: NONE, Method: MICROWELL inactive; negative | Test System: MOUSE LYMPHOMA, Strain/Indicator: L5178Y (TK+/TK-), Metabolic Activation: RAT, LIVER, S-9, AROCLOR 1242 AND AROCLOR 1254 (2:1), Method: SUSPENSION/PLATE inactive; negative
active: End Point: IN VITRO CHROMOSOMAL ABERRATIONS, Test System: CHINESE HAMSTER LUNG FIBROBLAST CELLS (CHL/IU), Metabolic Activation: RAT, LIVER, S-9, PHENOBARBITAL AND 5,6-BENZOFLAVONE active; positive (structural changes) | Test System: UDS RAT HEPATOCYTES, Strain/Indicator: BROMODEOXYURIDINE INCORP, Metabolic Activation: NONE, Method: FLOW CYTOMETRIC ANALYSIS active; positive | Test System: UDS RAT HEPATOCYTES, Strain/Indicator: THY INCORP, Metabolic Activation: NONE, Method: AUTORADIOGRAPHY active; positive

CNC[C@H](O)[C@@H](O)[C@H](O)[C@H](O)CO.CNC[C@H](O)[C@@H](O)[C@H](O)[C@H](O)CO.O=C([O-])CN(CCN(CC(=O)[O-])CC(=O)[O-])CCN(CC(=O)[O-])[C@H](COCc1ccccc1)C(=O)[O-].[Gd+3].[H+].[H+]
inactive: [3] inactive; negative | [4] inactive; negative | [5] inactive; negative | Test System: AMES SALMONELLA TYPHIMURIUM, Strain/Indicator: TA100, Metabolic Activation: RAT LIVER S-9, AROCLOR 1254 (10%), Method: STANDARD PLATE inactive; negative | [6] inactive; negative | Test System: AMES SALMONELLA TYPHIMURIUM, Strain/Indicator: TA1535, Metabolic Activation: RAT LIVER S-9, AROCLOR 1254 (10%), Method: STANDARD PLATE inactive; negative | [7] inactive; negative | Test System: AMES SALMONELLA TYPHIMURIUM, Strain/Indicator: TA1537, Metabolic Activation: RAT LIVER S-9, AROCLOR 1254 (10%), Method: STANDARD PLATE inactive; negative | Test System: AMES SALMONELLA TYPHIMURIUM, Strain/Indicator: TA1538, Metabolic Activation: NONE, Method: STANDARD PLATE inactive; negative | Test System: AMES SALMONELLA TYPHIMURIUM, Strain/Indicator: TA1538, Metabolic Activation: RAT LIVER S-9, AROCLOR 1254 (10%), Method: STANDARD PLATE inactive; negative | Test System: ESCHERICHIA COLI, Strain/Indicator: WP2 UVR A-, Metabolic Activation: NONE, Method: STANDARD PLATE inactive; negative | Test System: ESCHERICHIA COLI, Strain/Indicator: WP2 UVR A-, Metabolic Activation: RAT LIVER S-9, AROCLOR 1254 (10%), Method: STANDARD PLATE inactive; negative
